Source: patent US12421264B2 (INSTITUT NATIONAL DE LA RECHERCHE SCIENTIFIQUE, priority 2018, dated 2025)
In brackets after ≈: the same amount, converted by molar mass.

Key:
[1] = test system: N. meninigitidis (LNP24198) expressing luciferase (LuxABCDE); experiment: N. meningitidis luminescent strain growth assay (16 h); type: cell-based, Neisseria meningitidis; details: for MIC: 16 h
Protocol: N. meningitidis Luminescent Strain Growth Assay (16 h)
To perform the library screening (FIG. 1) or to compare the activity of the different boron-containing salts (FIG. 3), the amount of light produced after 16 h of growth for N. meningitidis luminescent strain was measured. Contrarily to optical density (OD) readings which can be misleading due to the absorbance of dead cells, this measurement is directly correlated to the number of live cells, as the half-life of the luciferase and its substrate are limited and that the emission of light is therefore not subsisting after the death of the cells. To perform this assay, N. meninigitidis (LNP24198) expressing luciferase (LuxABCDE) was grown overnight under the control of the constitutive promoter porBp in GCB agar media, and a cell-suspension corresponding to an OD600=0.01 was subsequently prepared. In parallel, fresh stock DMSO solutions of the compounds were prepared (100×, with final concentrations being indicated in the different figures) and 1.8 μL of the corresponding solutions were added per well of 96-well plates. In each well, 178.2 μL of bacterial suspension were subsequently added. Bacteria were allowed to grow during 16 h at 37° C. with 5% CO2. The emitted light was measured using a 96-well plate luminometer (PerkinElmer Wallac 1420 Victor^3) and results are expressed in relative light unit (RLU). All these assays were performed at least in triplicates.
To screen molecules for their antibacterial activity, a luminescent system was used, as previously described for other bacteria. A clinical isolate of N. meninigitidis (LNP24198) expressing luciferase (LuxABCDE) under the control of the constitutive promoter porBp was used, as similarly described, located in the intergenic region next to NMB1732. More than 2400 compounds from different origins were screened to identify candidates with the ability to inhibit the growth of N. meningitidis after 16 h at 37° C. […] It is noteworthy that stock solutions for all tested compounds were prepared in DMSO and that the final DMSO concentration of the tested solutions was kept at 1%, a concentration which has proven not to affect the growth of N. meningitidis (FIG. 1A). […] An investigation of the effect of the BPh4^− moiety was then pursued.
To exclude any salt-specific effect, the effect of several BPh4^− and BF4^− salts on the growth of N. meningitidis luminescent strain was tested. The growth of N. meningitidis was measured after a 16 h-exposure to different concentrations of various BPh4^− and BF4^− salts. From this assay, the MIC (minimum inhibitory concentration, the lowest concentration that prevents visible bacterial growth, <800 RLU) was calculated. All BPh4 salts tested (sodium, ammonium and potassium) were all highly toxic for N. meningitidis.
Several borate compounds were prepared and their ability to inhibit N. meningitidis growth was assessed using the luminescent system described at Example 2.

[2] = Partition coefficient (Log P), shaking flask method (HPLC-UV); type: physicochemical; details: octanol/water
Description: As well-known to the skilled person, when expressing lipophilicity as log P, P is the partition coefficient; that is the ratio of the concentrations of the compound between a hydrophobic phase and a hydrophilic phase (forming a biphasic liquid mixture), generally water and octanol.
(§1) The measurement of log P is well described in the literature—see e.g. Román, I. P.; Mastromichali, A.; Tyrovola, K.; Canals, A.; Psillakis, E. Rapid Determination of Octanol-Water Partition Coefficient Using Vortex-Assisted Liquid-Liquid Microextraction. J. Chromatogr. A 2014, 1330, 1-5; and Yiantzi, E.; Psillakis, E.; Tyrovola, K.; Kalogerakis, N. Vortex-Assisted Liquid-Liquid Microextraction of Octylphenol, Nonylphenol and Bisphenol-A. Talanta 2010, 80 (5), 2057-2062, both of which are incorporated herein by reference.
as §1, with “Partition coefficients (Log P) were determined using” for “The measurement of log P is well described in”, “shaking flask method (HPLC-UV)—see” for “literature—see e.g.”

[3] = test system: N. gonorrhoeae (LNP16626); experiment: Bacterial survival assay (3 h), CFU counts; type: cell-based, Neisseria gonorrhoeae; details: 50 μM, 3 h, CFU counts
Protocol: (§2) Bacterial Survival Assay (3 h)
(§3) To measure bacterial survival (FIGS. 2 and 4), different bacteria were exposed to various concentrations of the compounds (as indicated) in their specific growth media (see the culture conditions above) for 3 h at 37° C. To perform this assay, all strains were grown overnight in their corresponding agar media. Cell-suspension corresponding to an OD600=0.05 were subsequently prepared. In parallel, fresh stock DMSO solutions of the compounds were prepared (100×, with final concentrations being indicated in the different figures) and 1.8 μL of the corresponding solutions were added per well of 96-well plates. In each well, 178.2 μL of bacterial suspension were subsequently added. Bacteria were allowed to grow during […] at 37° C. with 5% CO2. After incubation, serial dilutions (until 10^−6) were performed and 50 μL of each diluted solution were spread on agar plates. After an overnight incubation at 37° C. with/without 5% CO2, CFU were enumerated. All these assays were performed at least in triplicates.
(§4) Therefore, the bactericidal activity was assessed for the 4 compounds harboring a BPh4^− identified from the initial screen described above (AnIII-7, AnIII-6, AnII-18, NaBPh4). N. meningitidis was treated with 50 μM of each compound and the % survival cells (compared with DMSO 1% control) was measured using serial dilutions and CFU counts. […] To verify if the bactericidal effect could be observed for the other pathogen of the Neisseria family, a clinical isolate of. N. gonorrhoeae (LNP16626 [3]) was also treated with 50 μM of the same compounds, respectively, using the same assay.
(§5) The MBC (minimum bactericidal concentration that kill >99.999%), the concentration necessary to completely abrogate bacterial survival after a 3 h exposure to NaBPh4, was next assessed.

N. meningitidis = experiment: Bacterial survival assay (3 h), CFU counts; type: cell-based, Neisseria meningitidis; details: 50 μM, 3 h, CFU counts vs DMSO 1% control
Protocol: as §2, §3, §4, §5

[4] = minimum inhibitory concentration, N. meningitidis growth, luminescent system (<800 RLU)

Molecule	MIC ([1]; Neisseria meningitidis)	MIC [1, 4]	logP [2]	further results
Oc1ccc2ccccc2c1/C=N/c1ccc([B-](c2ccccc2)(c2ccccc2)c2ccccc2)cc1 [Compound 19, sodium {4-[(E)-[(2-hydroxynaphthalen-1-yl)methylidene]amino]phenyl}triphenylborate]	2.35 µM			
c1ccc(P(c2ccccc2)c2nc3ccccc3n2Cc2ccc([B-](c3ccccc3)(c3ccccc3)c3ccccc3)cc2)cc1 [Compound 21]	0.78 µM			
Sodium bis(4-methylphenyl)diphenylborate [Compound 13]		5 µM		Log P [2]: 2.0±0.1
CCCCCC[B-](c1ccccc1)(c1ccccc1)c1ccccc1 [Compound 9, Sodium hexyltriphenylborate]	1 µM		2.83 ± 0.02	
C[B-](c1ccccc1)(c1ccccc1)c1ccccc1 [Compound 5, Sodium methyltriphenylborate]	25 µM		-0.96 ± 0.1	
Cc1ccc([B-](c2ccccc2)(c2ccccc2)c2ccccc2)cc1.[Na+] [Compound 12, Sodium tolyltriphenylborate]		25 µM		Log P [2]: 0.41±0.02
Sodium tetrafluoroborate [Compound 4, reference compound]		>250 µM		
Potassium difluorodiphenylborate [Compound 3]		37.5 µM		
Cc1ccc([B-](c2ccc(C)cc2)(c2ccc(C)cc2)c2ccc(C)cc2)cc1.[Na+] [Compound 15, sodium tetrakis(tolyl)borate]		Active but MIC not determined because of abnormal background signal		
Fc1ccc([B-](c2ccc(F)cc2)(c2ccc(F)cc2)c2ccc(F)cc2)cc1 [Compound 16, sodium tetrakis(4-fluorophenyl)borate]	2.5 µM			
CCCCCCCC[B-](c1ccccc1)(c1ccccc1)c1ccccc1 [Compound 11, Sodium octyltriphenylborate]	1 µM		4.1 ± 0.3	
F[B-](F)(F)c1ccccc1.[K+] [Compound 2, Potassium trifluoro(phenyl)borate, reference compound]		>250 µM		
CCCCCCC[B-](c1ccccc1)(c1ccccc1)c1ccccc1 [Compound 10, Sodium heptyltriphenylborate]	1 µM		3.1 ± 0.05	
CC[B-](c1ccccc1)(c1ccccc1)c1ccccc1 [Compound 6, Sodium ethyltriphenylborate]	25 µM		0	
CCC[B-](c1ccccc1)(c1ccccc1)c1ccccc1 [Compound 7, Sodium n-propyltriphenylborate]	5 µM		0.8 ± 0.2	
Cc1ccc([B-](c2ccccc2)(c2ccc(C)cc2)c2ccc(C)cc2)cc1.[Na+] [Compound 14, Sodium tris(4-methylphenyl)(phenyl)borate]		5 µM		Log P [2]: 2.5±0.2
F[B-](F)(F)F [BF4, reference compound]				survival of N. gonorrhoeae [3]: does not exhibit anti-bacterial activity; Log P [2]: about −1.6; survival of N. meningitidis (N. meningitidis): does not exhibit anti-bacterial activity
CC[C@H]1OC(=O)[C@H](C)[C@@H](O[C@H]2C[C@@](C)(OC)[C@@H](O)[C@H](C)O2)[C@H](C)[C@@H](O[C@@H]2O[C@H](C)C[C@H](N(C)C)[C@H]2O)[C@](C)(O)C[C@@H](C)C(=O)[C@H](C)[C@@H](O)[C@]1(C)O [erythromycin, reference compound]				emitted light after 16 h of growth ([1]; erythromycin 3.5 μM, largest value of 10 replicates): < 800 RLU
c1ccc(B(c2ccccc2)c2ccccc2)cc1 [BPh3, triphenylborane, reference compound]				toxicity / effect on growth of N. meningitidis luminescent strain (FIG. 3) ([1]; 16 h-exposure, different concentrations): No observable toxicity
c1ccc([B-]2(c3ccccc3)[NH2+]CCO2)cc1 [Compound 22]	75 µM (≈ 16.9 µg/mL)			
